Reference: ChEMBL document CHEMBL5518206, “Hit-to-Lead Identification and Validation of a Triaromatic Pleuromutilin Antibiotic Candidate” (J Med Chem, 2024)
Converted amounts (≈) assume the structure as drawn. The source made the active and inactive calls. No cut-off for these calls is given here.

Legend:
Streptococcus pneumoniae = assay: Antibacterial activity against Streptococcus pneumoniae assessed as inhibition of visible growth incubated for 20 to 24 hrs by microbroth serial dilution assay; format: functional; details: time 20-24 hrs, read-out: MIC100
Enterococcus faecium [1] = assay: Antibacterial activity against Vancomycin-resistant Enterococcus faecium assessed as inhibition of visible growth incubated for 20 to 24 hrs by microbroth serial dilution assay; format: functional; details: time 20-24 hrs, read-out: MIC100
hERG (KCNH2) = hERG (KCNH2) (Homo sapiens, UniProt Q12809); assay: Inhibition of hERG expressed in HEK293 cells assessed as tail current at 60 uM measured after 8 mins by automated whole-cell Qpatch Clamp assay relative to control; details: HEK293 cells that express hERG
Enterococcus faecium [2] = assay: Antibacterial activity against Linezolid/Ampicillin/ciprofloxacin/Vancomycin-resistant Enterococcus faecium assessed as inhibition of visible growth incubated for 20 to 24 hrs by microbroth serial dilution assay; format: functional; details: time 20-24 hrs, read-out: MIC100
Staphylococcus aureus [3] = assay: Antibacterial activity against multi drug-resistant Staphylococcus aureus USA300 FPR3757 assessed as inhibition of visible growth incubated for 20 to 24 hrs by microbroth serial dilution assay; format: functional; details: time 20-24 hrs, read-out: MIC100
Escherichia coli = assay: Antibacterial activity against Escherichia coli assessed as inhibition of visible growth incubated for 20 to 24 hrs by microbroth serial dilution assay; format: functional, organism-based; details: time 20-24 hrs
in vitro [4] = details: human, liver microsomes
in vitro [5] = details: human, liver microsomes; remark: listed apart in the source
in vitro [6] = details: mouse, liver microsomes
Enterococcus faecalis = assay: Antibacterial activity against Enterococcus faecalis assessed as inhibition of visible growth incubated for 20 to 24 hrs by microbroth serial dilution assay; format: functional; details: time 20-24 hrs, read-out: MIC100
[7] = biological target: Voltage-gated inwardly rectifying potassium channel KCNH2 (Homo sapiens, UniProt Q12809); assay: Inhibition of hERG expressed in HEK293 cells assessed as tail current measured after 8 mins by automated whole-cell Qpatch Clamp assay
[8] = Inhibition of P-gp efflux in MDCKII-MDR1 cells using calcein-AM as substrate assessed as intracellular calcein fluorescence preincubated for 15 mins followed by substrate addition and measured by fluorescence based assay; format: cell-based; details: Canis lupus familiaris
in vitro [9] = details: mouse, liver microsomes; remark: listed apart in the source
[10] = test system: Staphylococcus epidermidis; assay: Antibacterial activity against Staphylococcus epidermidis assessed as inhibition of visible growth incubated for 20 to 24 hrs by microbroth serial dilution assay; format: functional, organism-based; details: time 20-24 hrs
Listeria = assay: Antibacterial activity against Listeria assessed as inhibition of visible growth incubated for 20 to 24 hrs by microbroth serial dilution assay; format: functional, organism-based; details: time 20-24 hrs
Staphylococcus aureus [11] = assay: (§1) Induction of resistant development in -(6-(6-(Piperazin-1-y1)-9H-purin-9-y)methyl)pyridin-3-y1)-1H-1,2,3-triazol-1-yl)-22-deoxypleuromutilin-16 passages resistance developed Staphylococcus aureus USA300 FPR3757 assessed as fold increase in MIC at sub-MIC concentration measured after 5 passages with conjugate by serial passage assay; format: functional
Staphylococcus aureus [12] = assay: Induction of resistant development in linezolid 5 passages resistance developed Staphylococcus aureus USA300 FPR3757 assessed as fold increase in MIC at sub-MIC concentration measured after 13 passages with conjugate by serial passage assay; format: functional
Staphylococcus aureus [13] = assay: as §1, with “after 25” for “after 5”; format: functional
Staphylococcus aureus [14] = assay: Induction of resistant development in linezolid 5 passages resistance developed Staphylococcus aureus USA300 FPR3757 assessed as fold increase in MIC at sub-MIC concentration measured after 25 passages with conjugate by serial passage assay; format: functional
Staphylococcus aureus [15] = assay: as §1, with “after 28” for “after 5”; format: functional
Staphylococcus aureus [16] = assay: as §1, with “after 18” for “after 5”; format: functional
Staphylococcus aureus [17] = assay: Antibacterial activity against multi drug-resistant Staphylococcus aureus USA300 FPR3757 assessed as reduction in bacterial growth at 1 times of MIC concentration measured after 24 hrs by time-kill assay; format: functional, organism-based
Staphylococcus aureus [18] = assay: Induction of resistant development in linezolid 5 passages resistance developed Staphylococcus aureus USA300 FPR3757 assessed as fold increase in MIC at sub-MIC concentration measured after 9 passages with conjugate by serial passage assay; format: functional
Staphylococcus aureus [19] = assay: Induction of resistant development in linezolid 5 passages resistance developed Staphylococcus aureus USA300 FPR3757 assessed as fold increase in MIC at sub-MIC concentration measured after 28 passages with conjugate by serial passage assay; format: functional
Staphylococcus aureus [20] = assay: Induction of resistant development in linezolid 5 passages resistance developed Staphylococcus aureus USA300 FPR3757 assessed as fold increase in MIC at sub-MIC concentration measured after 5 passages with conjugate by serial passage assay; format: functional
Staphylococcus aureus [21] = assay: Induction of resistant development in lefamulin 5 passages resistance developed Staphylococcus aureus USA300 FPR3757 assessed as fold increase in MIC at sub-MIC concentration measured after 22 passages with conjugate by serial passage assay; format: functional
Staphylococcus aureus [22] = assay: as §1, with “after 13” for “after 5”; format: functional
Staphylococcus aureus [23] = assay: Induction of resistant development in linezolid 5 passages resistance developed Staphylococcus aureus USA300 FPR3757 assessed as fold increase in MIC at sub-MIC concentration measured after 22 passages with conjugate by serial passage assay; format: functional
Staphylococcus aureus [24] = assay: Induction of resistant development in lefamulin 5 passages resistance developed Staphylococcus aureus USA300 FPR3757 assessed as fold increase in MIC at sub-MIC concentration measured after 28 passages with conjugate by serial passage assay; format: functional
Staphylococcus aureus [25] = assay: Induction of resistant development in lefamulin 5 passages resistance developed Staphylococcus aureus USA300 FPR3757 assessed as fold increase in MIC at sub-MIC concentration measured after 5 passages with conjugate by serial passage assay; format: functional
Staphylococcus aureus [26] = assay: Induction of resistant development in lefamulin 5 passages resistance developed Staphylococcus aureus USA300 FPR3757 assessed as fold increase in MIC at sub-MIC concentration measured after 18 passages with conjugate by serial passage assay; format: functional
Staphylococcus aureus [27] = assay: as §1, with “after 9” for “after 5”; format: functional
Staphylococcus aureus [28] = assay: as §1, with “after 22” for “after 5”; format: functional
Staphylococcus aureus [29] = assay: Induction of resistant development in linezolid 5 passages resistance developed Staphylococcus aureus USA300 FPR3757 assessed as fold increase in MIC at sub-MIC concentration measured after 18 passages with conjugate by serial passage assay; format: functional
Staphylococcus aureus [30] = assay: Induction of resistant development in lefamulin 5 passages resistance developed Staphylococcus aureus USA300 FPR3757 assessed as fold increase in MIC at sub-MIC concentration measured after 9 passages with conjugate by serial passage assay; format: functional
Staphylococcus aureus [31] = assay: Induction of resistant development in lefamulin 5 passages resistance developed Staphylococcus aureus USA300 FPR3757 assessed as fold increase in MIC at sub-MIC concentration measured after 25 passages with conjugate by serial passage assay; format: functional
Staphylococcus aureus [32] = assay: Induction of resistant development in lefamulin 5 passages resistance developed Staphylococcus aureus USA300 FPR3757 assessed as fold increase in MIC at sub-MIC concentration measured after 13 passages with conjugate by serial passage assay; format: functional
Staphylococcus aureus [33] = assay: In vivo antibacterial activity against methicillin susceptible Staphylococcus aureus ATCC 25923 infected sepsis/peritonitis infection model assessed as reduction in bacterial burden in peritoneum at 80 mg/kg, sc twice at 1 hr and 3 hrs measured after 6 hrs; format: functional
Staphylococcus aureus [34] = assay: In vivo antibacterial activity against methicillin susceptible Staphylococcus aureus ATCC 25923 infected sepsis/peritonitis infection model assessed as reduction in bacterial burden in blood at 80 mg/kg, sc twice at 1 hr and 3 hrs measured after 6 hrs; format: functional

Chain of hERG (KCNH2) (Q12809 whole entry): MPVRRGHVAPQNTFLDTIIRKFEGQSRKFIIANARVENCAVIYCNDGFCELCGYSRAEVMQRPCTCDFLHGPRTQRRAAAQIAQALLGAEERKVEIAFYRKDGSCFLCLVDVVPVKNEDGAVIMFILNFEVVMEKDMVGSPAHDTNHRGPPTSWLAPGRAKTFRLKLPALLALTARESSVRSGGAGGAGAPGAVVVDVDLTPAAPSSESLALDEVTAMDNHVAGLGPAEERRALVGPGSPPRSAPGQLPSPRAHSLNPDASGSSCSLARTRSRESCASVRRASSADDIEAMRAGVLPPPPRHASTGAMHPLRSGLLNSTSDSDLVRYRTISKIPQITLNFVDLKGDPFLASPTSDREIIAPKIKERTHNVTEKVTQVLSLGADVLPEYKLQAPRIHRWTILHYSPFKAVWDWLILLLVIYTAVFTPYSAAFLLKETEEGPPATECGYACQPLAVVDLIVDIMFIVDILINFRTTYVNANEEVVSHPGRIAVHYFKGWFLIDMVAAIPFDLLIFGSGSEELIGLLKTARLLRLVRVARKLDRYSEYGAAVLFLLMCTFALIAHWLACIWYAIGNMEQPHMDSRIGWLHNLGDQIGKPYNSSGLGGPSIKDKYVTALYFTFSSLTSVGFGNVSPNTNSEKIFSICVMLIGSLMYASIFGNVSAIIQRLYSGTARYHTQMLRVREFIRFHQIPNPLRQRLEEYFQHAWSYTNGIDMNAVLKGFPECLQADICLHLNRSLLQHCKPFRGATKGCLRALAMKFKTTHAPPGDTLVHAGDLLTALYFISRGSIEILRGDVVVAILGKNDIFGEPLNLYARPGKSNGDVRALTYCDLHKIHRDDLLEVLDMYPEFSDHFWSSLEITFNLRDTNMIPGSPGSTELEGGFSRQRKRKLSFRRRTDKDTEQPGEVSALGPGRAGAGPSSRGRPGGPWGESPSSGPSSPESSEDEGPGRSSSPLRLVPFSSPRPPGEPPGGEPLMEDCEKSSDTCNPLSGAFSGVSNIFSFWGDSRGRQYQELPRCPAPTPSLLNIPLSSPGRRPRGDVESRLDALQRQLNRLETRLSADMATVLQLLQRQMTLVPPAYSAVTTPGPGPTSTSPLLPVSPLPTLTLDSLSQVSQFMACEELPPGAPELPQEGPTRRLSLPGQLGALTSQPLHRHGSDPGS
Chain of Voltage-gated inwardly rectifying potassium channel KCNH2 (Q12809 whole entry): as above

SMILES: C=C[C@]1(C)C[C@@H](OC(=O)Cn2cc(-c3ccc(Cn4cnc5c(N)ncnc54)cc3)nn2)[C@]2(C)[C@H](C)CC[C@]3(CCC(=O)[C@H]32)[C@@H](C)[C@@H]1O
- MIC (Streptococcus pneumoniae): 0.5 µg/mL (≈ 0.766 µM)
- MIC (Enterococcus faecium [1]): 0.12 µg/mL (≈ 0.184 µM)
- inhibition at 8 min, 60 µM (hERG (KCNH2)): 26.3%
- MIC (Enterococcus faecium [2]): 0.12 µg/mL (≈ 0.184 µM)
- MIC (Staphylococcus aureus [3]): 0.03 µg/mL (≈ 0.046 µM)
- Activity (Escherichia coli): inactive
- CLint scaled at 0.5 h, 1 µM (in vitro [4]): 305 L/h/kg
- half-life at 0.5 h, 1 µM (in vitro [5]): 1.2 min
- half-life at 0.5 h, 1 µM (in vitro [6]): < 0.5 min
- MIC (Enterococcus faecalis): 0.25 µg/mL (≈ 0.383 µM)
- IC50 [7]: > 200 µM
- IC50 [8]: 36 µM
- CLint scaled at 0.5 h, 1 µM (in vitro [9]): > 600 L/h/kg
- Activity [10]: inactive
- Activity (Listeria): inactive

SMILES: C=C[C@]1(C)C[C@@H](OC(=O)Cn2cc(-c3ccc(Cn4cnc5c(N6CCNCC6)ncnc54)nc3)nn2)[C@]2(C)[C@H](C)CC[C@]3(CCC(=O)[C@H]32)[C@@H](C)[C@@H]1O
- fold change (FC) (Staphylococcus aureus [11]): 8
- fold change (FC) (Staphylococcus aureus [12]): 16
- fold change (FC) (Staphylococcus aureus [13]): 64
- fold change (FC) (Staphylococcus aureus [14]): 32
- fold change (FC) (Staphylococcus aureus [15]): 64
- fold change (FC) (Staphylococcus aureus [16]): 32
- Activity (Staphylococcus aureus [17]): inactive
- fold change (FC) (Staphylococcus aureus [18]): 8
- fold change (FC) (Staphylococcus aureus [19]): 32
- fold change (FC) (Staphylococcus aureus [20]): 4
- fold change (FC) (Staphylococcus aureus [21]): 32
- fold change (FC) (Staphylococcus aureus [22]): 16
- fold change (FC) (Staphylococcus aureus [23]): 32
- fold change (FC) (Staphylococcus aureus [24]): 128
- fold change (FC) (Staphylococcus aureus [25]): 4
- fold change (FC) (Staphylococcus aureus [26]): 32
- fold change (FC) (Staphylococcus aureus [27]): 8
- fold change (FC) (Staphylococcus aureus [28]): 32
- fold change (FC) (Staphylococcus aureus [29]): 8
- fold change (FC) (Staphylococcus aureus [30]): 16
- fold change (FC) (Staphylococcus aureus [31]): 64
- fold change (FC) (Staphylococcus aureus [32]): 32

SMILES: C=C[C@]1(C)C[C@@H](OC(=O)Cn2cc(-c3ccc(Cn4cnc5c(N6CCNCC6)ncnc54)nc3)nn2)[C@]2(C)[C@H](C)CC[C@]3(CCC(=O)[C@H]32)[C@@H](C)[C@@H]1O.Cl.Cl
- Activity (Staphylococcus aureus [33]): 1 log10FFU/ml
- Activity (Staphylococcus aureus [34]): 2 log10FFU/ml
